# Values joined by “and” are separate entries in the source; they are usually repeats but may differ in a detail not shown here. Equal entries are not always repeated.
# System: female Aedes aegypti mosquitoes
# Assay: In vitro repellency against mosquitoes, treated collagen membranes over blood-filled wells
# Format: in vivo
# Settings: 20% DEET in ethanol (positive control), 25 μL on membrane; probes over 20 minutes; five replicates
# Description: A laboratory trial was conducted to evaluate the repellency of santalol against female Aedes aegypti mosquitoes using an in vitro method. A 20% DEET positive control and untreated and ethanol negative controls were also assessed for comparison purposes. Test substances were applied to prepared collagen membranes placed over heated, blood-filled wells and exposed to mosquitoes. The number of mosquitoes probing each well was recorded at two minute intervals up to 20 minutes. Female adult laboratory reared Aedes aegypti mosquitoes (susceptible) were obtained from Benzon Research in Carlisle, Pa. 250 mosquitoes were used per replicate (5 replicates per test). Adult mosquitoes were 3-8 days old. Santalol was diluted in ethanol to 2% and 5% concentrations. A positive control consisting of 20% DEET in ethanol was prepared using stock solutions. Negative controls consisted of no treatment, and ethanol-only treatment. […] The number of mosquitoes probing each membrane was recorded every two minutes for twenty minutes. […] Percent repellency was calculated for each replicate using the total number of probes with the following formula: [formula] […] Average percent repellency and standard error (SE) were calculated across all five replicates. […]
compound,measurement,value
"CCN(CC)C(=O)c1cccc(C)c1 [20% DEET, N,N-Diethyl-meta-toluamide]",Average percent repellency ± SE,93.9% and 93.9 ± 2.3%
